Results on 14 compounds are retold here after EP4635944A1, “2-AZABICYCLO[3.1.1]HEPTANE COMPOUND” (Daiichi Sankyo Company, Limited, priority 2022, dated 2024).

The structures appear in SMILES notation.

Series [1] is described as follows: Evaluation of metabolic stability in human liver microsomes. It is filed as in vitro ADME. As to conditions: for Human metabolic stability Residual ratio (%): test compound 1 µM, human liver microsomes 0.5 mg/mL, 30 minutes at 37°C; for metabolic stability compared to the corresponding compounds that were not deuterated: human liver microsomes, 30 minutes, deuterated at specific positions. How it is done:
Evaluation of metabolic stability of OX2R agonist
The test compound (final concentration was 1 µM, dissolved in DMSO/acetonitrile = 1/99), pooled human liver microsomes (final concentration was 0.5 mg/mL), and sodium phosphate buffer (pH 7.4, final concentration was 100 mM) were admixed and preincubated at 37°C for 15 minutes. Thereafter, a mixed solution of glucose-6-phosphate (final concentration was 10 mM), glucose-6-phosphate dehydrogenase (final concentration was 1 U/mL), and magnesium chloride (final concentration was 3.3 mM) was added and a certain amount of the mixture was collected. Then, an acetonitrile/methanol mixed solution (75/25, v/v) containing a 4.5-fold volume of internal standard substances (final concentrations: phenacetin: 1 ng/mL, niflumic acid: 15 ng/mL, furosemide: 20 ng/mL) was added to stop the reaction (0 min sample). Subsequently, β-nicotinamide adenine dinucleotide phosphate (final concentration was 1 mM) was added, and after 30 minutes of incubation at 37°C, a certain amount of the mixture was collected, to which an acetonitrile/methanol mixed solution (75/25, v/v) containing a 4.5-fold volume of the internal standard substances was added to stop the reaction (30 min sample). For both samples, a portion of the supernatant after centrifugation (about 1200 × g, 4°C, 15 minutes) was injected into a liquid chromatograph tandem quadrupole mass spectrometer (LC-MS/MS) for analysis. The metabolic stability was evaluated by comparing the test compound/internal standard substance ratio of the 30 min sample with the 0 min sample and calculating the residual ratio of the test compound. […]

The next series deals with T1, human OX2R (Homo sapiens, UniProt O43614).
T1 construct: host or cells: CHO-K1 (Chinese Hamster Ovary K1)
T1 sequence (O43614 1-444): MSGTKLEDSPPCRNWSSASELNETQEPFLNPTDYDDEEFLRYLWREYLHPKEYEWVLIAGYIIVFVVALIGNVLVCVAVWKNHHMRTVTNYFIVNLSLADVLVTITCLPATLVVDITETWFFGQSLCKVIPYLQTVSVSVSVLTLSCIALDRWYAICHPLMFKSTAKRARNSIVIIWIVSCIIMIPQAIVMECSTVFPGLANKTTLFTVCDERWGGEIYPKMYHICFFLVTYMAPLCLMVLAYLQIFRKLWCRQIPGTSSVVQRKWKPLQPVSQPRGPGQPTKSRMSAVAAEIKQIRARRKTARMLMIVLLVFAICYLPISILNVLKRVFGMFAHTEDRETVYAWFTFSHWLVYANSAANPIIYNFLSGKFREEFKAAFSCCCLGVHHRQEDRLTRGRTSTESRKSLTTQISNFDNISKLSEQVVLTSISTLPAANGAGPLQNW
Description: Evaluation of OX2R agonist activity (intracellular calcium, CHO-K1 cells with forced expression of human OX2R). It is filed as cell-based. As to conditions: CHO-K1 cells expressing human OX2R; 100% = 5 µM of the reference compound; read-out: hOX2R EC50. Summed up: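 Cells seeded 7500/well, cultured 24 h, loaded with Fluo 4-AM (2.5 µg/mL final) plus probenecid for 30 min. Calcium response read as 480/540 nm excitation ratio; max–min signal 5–7 s after compound addition, normalized to buffer (0%) and 5 µM reference agonist (100%). EC50 from concentration series; 0.5% DMSO final.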
A general note: Calcium flux is commonly read through the fluorescence of an indicator in the cells.

Series [2] is described as follows: Evaluation of ERM production (GSH adduct detection in human liver microsomes). Format: in vitro ADME. As to conditions: test compound 500 µM, human liver microsomes 2 mg/mL, GSH/SI-GSH, 37°C for 60 minutes; negative = no metabolite GSH adduct pair peak. As to the method:
Evaluation of ERM production from OX2R agonist
The test compound (final concentration was 500 µM, dissolved in DMSO/acetonitrile = 1/9), pooled human liver microsomes (final concentration was 2 mg/mL), L-glutathione reduced (GSH, final concentration was 0.5 mM), potassium phosphate buffer (pH 7.4, final concentration was 100 mM), and stable isotope labeled GSH (SI-GSH, final concentration was 0.5 mM) were admixed and preincubated at 37°C for 3 minutes. Thereafter, a mixed solution of glucose-6-phosphate (final concentration was 25 mM), β-nicotinamide adenine dinucleotide phosphate (final concentration was 0.25 mM), glucose-6-phosphate dehydrogenase (final concentration was 2 U/mL), and magnesium chloride (final concentration was 10 mM) was added, and incubation was performed at 37°C for 60 minutes. After the incubation, the reaction was stopped by adding a 2-fold volume of acetonitrile. A portion of the supernatant after centrifugation (about 1200 × g, 4°C, 15 minutes) was injected into a liquid chromatograph quadrupole time-of-flight mass spectrometer (Q-Tof) for analysis. The mass number of metabolites, GSH adduct and SI-GSH adduct, predicted from the chemical structural formula of the test compound was calculated, and the presence of the corresponding peaks in the measurement sample was checked. Peaks with the same retention time and approximately equal peak area of the detected peaks of the metabolites, GSH adduct and SI-GSH adduct, were extracted as pair peaks. The presence of a pair peak determined to be a metabolite GSH adduct was considered positive for ERM production potential, whereas the absence of such a peak was considered negative for ERM production potential.
Background: Microsomes from liver hold many membrane-bound enzymes, among them those of drug oxidation.

For the compound `CCS(=O)(=O)NC1C(Cc2cc(F)cc(-c3ccccc3)c2F)N(C(=O)[C@@H](C)O)C2CC1(F)C2` (single isomer, unassigned) [Example 91], the “Human metabolic stability Residual ratio (%)” value in series [1] amounted to 25%. The EC50 at human OX2R amounted to 39 nM.

Take `C[C@@H](O)C(=O)N1C2CC(F)(C2)[C@H](NS(C)(=O)=O)[C@@H]1Cc1cc(F)cc(-c2ccccc2)c1F` [Example 63, N-{(3S,4R)-3-[(2,5-Difluoro[biphenyl]-3-yl)methyl]-5-fluoro-2-[(2R)-2-hydroxypropanoyl]-2-azabicyclo[3.1.1]heptan-4-yl}methanesulfonamide]: the “Human metabolic stability Residual ratio (%)” value in series [1] is 38%. Further, on human OX2R, the concentration giving a half-maximal response (EC50) came to 22 nM.

Consider `CC(C)(O)C(=O)N1C2CC(C2)C(NS(C)(=O)=O)C1Cc1cc(F)cc(-c2ccccc2)c1F` (single isomer, unassigned) [Example 59, N-[(3S,4S)-3-[(2,5-Difluoro[biphenyl]-3-yl)methyl]-2-(2-hydroxy-2-methylpropanoyl)-2-azabicyclo[3.1.1]heptan-4-yl]methanesulfonamide or N-[(3R,4R)-3-[(2,5-difluoro[biphenyl]-3-yl)methyl]-2-(2-hydroxy-2-methylpropanoyl)-2-azabicyclo[3.1.1]heptan-4-yl]methanesulfonamide], for which the EC50 at human OX2R was 88 nM. Further, the ERM production potential entry in series [2] is recorded as “negative”.

`[2H][C@](C)(O)C(=O)N1C2CC(F)(C2)[C@H](NS(C)(=O)=O)[C@@H]1Cc1cccc(-c2ccccc2)c1F` [Example 99, N-{(3S,4R)-5-Fluoro-3-[(2-fluoro[biphenyl]-3-yl)methyl]-2-[(2R)-2-hydroxy(2-^2H)propanoyl]-2-azabicyclo[3.1.1]heptan-4-yl}methanesulfonamide]: in series [1], the “metabolic stability compared to the corresponding compounds that were not deuterated” value is on record as “improved metabolic stability” and the “Human metabolic stability Residual ratio (%)” value is 78%. Besides, the EC50 at human OX2R stood at 27 nM.

For the compound `C[C@@H](O)C(=O)N1C2CC(C2)[C@H](NS(C)(=O)=O)[C@@H]1Cc1cccc(-c2ccccc2)c1F` [Example 25, N-{(3S,4S)-3-[(2-Fluoro[biphenyl]-3-yl)methyl]-2-[(2R)-2-hydroxypropanoyl]-2-azabicyclo[3.1.1]heptan-4-yl}methanesulfonamide], in series [1], the “Human metabolic stability Residual ratio (%)” value stood at 34%. Moreover, the EC50 on human OX2R is 24 nM.

Take `CC(C)(O)C(=O)N1C2CC(F)(C2)[C@H](NS(C)(=O)=O)[C@@H]1Cc1cc(F)cc(-c2cccc(Cl)c2)c1F` [Example 77, N-[(3S,4R)-3-[(3'-Chloro-2,5-difluoro[biphenyl]-3-yl)methyl]-5-fluoro-2-(2-hydroxy-2-methylpropanoyl)-2-azabicyclo[3.1.1]heptan-4-yl]methanesulfonamide]: the EC50 on human OX2R turned out to be 46 nM. Also, in series [2], the ERM production potential entry is given as “negative”.

Consider `C[C@@H](O)C(=O)N1C2CC(F)(C2)[C@H](NS(C)(=O)=O)[C@@H]1Cc1cccc(-c2ccccc2)c1F` [Example 53, N-{(3S,4R)-5-Fluoro-3-[(2-fluoro[biphenyl]-3-yl)methyl]-2-[(2R)-2-hydroxypropanoyl]-2-azabicyclo[3.1.1]heptan-4-yl}methanesulfonamide], for which the “Human metabolic stability Residual ratio (%)” value in series [1] is on record as 49%. Further, the EC50 on human OX2R was 19 nM.

As for `[2H][C@](C)(O)C(=O)N1C2CC(F)(C2)[C@H](NS(C)(=O)=O)[C@@H]1Cc1cc(F)cc(-c2ccccc2)c1F` [Example 100, N-{(3S,4R)-3-[(2,5-Difluoro[biphenyl]-3-yl)methyl]-5-fluoro-2-[(2R)-2-hydroxy(2-^2H)propanoyl]-2-azabicyclo[3.1.1]heptan-4-yl}methanesulfonamide], in series [1], the “metabolic stability compared to the corresponding compounds that were not deuterated” value is listed as “improved metabolic stability” and the “Human metabolic stability Residual ratio (%)” value came out at 70%. Moreover, the EC50 on human OX2R was 43 nM.

Consider `[2H]C([2H])([2H])C([2H])(O)C(=O)N1C2CC(C2)C(NS(=O)(=O)CC)C1Cc1cc(F)cc(-c2ccccc2)c1F` (single isomer, unassigned) [Example 92, N-{3-[(2,5-Difluoro[biphenyl]-3-yl)methyl]-2-[2-hydroxy(^2H4)propanoyl]-2-azabicyclo[3.1.1]heptan-4-yl}ethanesulfonamide], for which the EC50 on human OX2R is 20 nM. Besides, the ERM production potential result in series [2] is reported as “negative”.

Regarding `[2H]C([2H])([2H])C([2H])(O)C(=O)N1C2CC(F)(C2)C(NS(=O)(=O)CC)C1Cc1cc(F)cc(-c2ccccc2)c1F` (single isomer, unassigned) [Example 95, N-{3-[(2,5-Difluoro[biphenyl]-3-yl)methyl]-5-fluoro-2-[2-hydroxy(^2H4)propanoyl]-2-azabicyclo[3.1.1]heptan-4-yl}ethanesulfonamide], in series [1], the “metabolic stability compared to the corresponding compounds that were not deuterated” value is “improved metabolic stability” and the “Human metabolic stability Residual ratio (%)” value is 52%. In addition, at human OX2R, the EC50 was 19 nM.

Regarding `CC(C)(O)C(=O)N1C2CC(C2)C(NS(C)(=O)=O)C1Cc1cc(F)cc(-c2cccc(Cl)c2)c1F` (single isomer, unassigned) [Example 67, N-[(3S,4S)-3-[(3'-Chloro-2,5-difluoro[biphenyl]-3-yl)methyl]-2-(2-hydroxy-2-methylpropanoyl)-2-azabicyclo[3.1.1]heptan-4-yl]methanesulfonamide or N-[(3R,4R)-3-[(3'-chloro-2,5-difluoro[biphenyl]-3-yl)methyl]-2-(2-hydroxy-2-methylpropanoyl)-2-azabicyclo[3.1.1]heptan-4-yl]methanesulfonamide], the EC50 at human OX2R was determined as 70 nM. For the same compound, the ERM production potential entry in series [2] is “negative”.

In the case of `CC(C)(O)C(=O)N1C2CC(F)(C2)[C@H](NS(C)(=O)=O)[C@@H]1Cc1cc(F)cc(-c2ccccc2)c1F` [Example 74, N-[(3S,4R)-3-[(2,5-Difluoro[biphenyl]-3-yl)methyl]-5-fluoro-2-(2-hydroxy-2-methylpropanoyl)-2-azabicyclo[3.1.1]heptan-4-yl]methanesulfonamide], on human OX2R, the EC50 amounted to 72 nM. For the same compound, the ERM production potential entry in series [2] is given as “negative”.

As to `C[C@@H](O)C(=O)N1C2CC(C2)[C@H](NS(C)(=O)=O)[C@@H]1Cc1cccc(-c2ccn(C)n2)c1F` [Example 32, N-{(3S,4S)-3-[2-Fluoro-3-(1-methyl-1H-pyrazol-3-yl)benzyl]-2-[(2R)-2-hydroxypropanoyl]-2-azabicyclo[3.1.1]heptan-4-yl}methanesulfonamide], the EC50 on human OX2R is 535 nM. The ERM production potential entry in series [2] is on record as “negative”.

Turning to `CS(=O)(=O)N[C@H]1C2CC(C2)N(C(=O)C2(CO)CC2)[C@H]1Cc1cccc(-c2ccccc2)c1F` [Example 73, N-[(3S,4S)-3-[(2-Fluoro[biphenyl]-3-yl)methyl]-2-{[1-(hydroxymethyl)cyclopropyl]carbonyl}-2-azabicyclo[3.1.1]heptan-4-yl]methanesulfonamide], the EC50 on human OX2R was found to be 50 nM.

By EC50 is commonly meant the midpoint of the concentration-response curve.
